We go through one compound from patent publication US20090274739A1, “METHODS AND COMPOSITIONS FOR TREATING NEOINTIMAL HYPERPLASIA” (THE TRUSTEES OF COLUMBIA UNIVERSITY IN THE CITY OF NEW YORK, priority 2006, published 2009).

Broadly, the inhibition is the change of the read-out against control, counted positive when it falls.

In assay [1] the test system is primary murine aortic vascular smooth muscle cells (VSMC). In words: VSMC proliferation assay (Coulter counter / MTS-based). The class given is cell-based, mouse. The procedure: The methods used in the above experiments were as follows: Cell Culture and VSMC Proliferation Assays. Primary VSMC were isolated from aortic explants of wildtype, ob/ob, or db/db mice in the method of Roque et al. 30. VSMC were routinely cultured in Dulbecco's Modified Eagle's Medium (DMEM) containing either 4500 or 1250 mg/L glucose supplemented with 20% FBS at 37° C. in a 5% CO2 incubator. […] Cells were plated at 200,000 cells/ well of a 6 well dish and subsequently serum starved for 72 hr in DMEM media supplemented with 0.1 % FBS. Leptin dissolved in PBS was added directly to serum-free media at concentrations of 1, 10, or 100 ng/ml with […] LY294002 or U0126, and cells were grown for another 72 hr before harvesting. VSMC proliferation was measured by counting samples using a Coulter counter or using the Cell Titre 96 Aqueous One Solution Cell Proliferation Assay kit (Promega). Cell viability was assessed by Trypan Blue staining.
Proliferation of VSMCs: VSMC proliferation was measured by counting triplicate samples using a Coulter counter or using the CellTitier 96 Aqueous One Solution Cell Proliferation Assay (Promega, Madison, Wis.) kit per manufacturer's instructions. Cell viability was assessed via staining with Trypan Blue.
Murine VSMCs (2×10^4 cells/well) were incubated in a 6-well tissue culture plate for 72 hours in DMEM containing 0.1% FBS with or without insulin (10 or 100 nmol/L) and with 0, 1, 10, or 100 nmol/L rapamycin. Triplicate samples were counted using a Coulter counter and were normalized as percentage of the control group. Cell viability was checked via Trypan blue staining.
Murine VSMCs, seeded 2×10^4 cells/well in a 6-well plate, were starved for 72 hrs in DMEM with 0.1% FBS. Rapamycin, leptin, or insulin in different concentrations indicated in the figure were incubated with VSMCs in DMEM with 0.1% of FBS for 72 hrs. Triplicate samples were counted via a Coulter counter. Cell viability was checked via Trypan blue staining. […] In panel C, VSMCs were exposed to U0126, a specific MEK1/2 inhibitor, or LY294002, a specific PI3K inhibitor.
Primary VSMC were isolated from aortic explants of WT, ob/ob, or db/db mice (46). VSMC proliferation was determined using the Cell Titre Aqueous One Solution Proliferation Assay (Promega, Madison, Wis.). Migration to PDGF-BB was assessed in a modified Boyden chamber assay (47).

Assay [2] deals with murine femoral artery wire injury model (neointimal hyperplasia). The assay can be described thus: Femoral artery wire injury model, morphometry of neointimal formation. The class given is in vivo, mouse. Also on record: Lumen / Media / Intima / TVA (total vessel area): unit not given here. The source says:
Animal Models and Drug Treatments. Wild type C57BL/6J background mice and mice deficient for leptin (C57BL/6J-Lepob; ob/ob) or the leptin receptor (C57BL/6J-m+/+Lepdb; db/db) were purchased from Charles Jackson Laboratories, Maine. Mice were obtained at ages 6-8 weeks old and average weight 15 g. Animals were fed standard rodent chow and tap water ad libitum. Procedures and animal care were approved by the Institutional Animal Care and Use Committee. Mice were subjected to femoral artery wire injury or sham injury described below 24 hr prior to starting pharmacological treatments. Sirolimus was administered by intraperitoneal injection once per day for 14 days as a suspension in 0.2% sodium carboxymethyl cellulose and 0.25% polysorbate-80; duplicate experiments were accomplished with 0.5% DMSO. Leptin or LY294002 was administered by intraperitoneal injection once per day for 14 days as a suspension in PBS. Plasma leptin levels were measured at baseline, 3, 6, and 10 hr after leptin injection using an ELISA assay (R&D). Leptin plus the vehicle used for both sirolimus and LY294002 was used as the control group for the treatment groups with sirolimus and LY294002. After the 2-week treatment, animals were processed for femoral artery morphometry.
Femoral Artery Injury Model. Endoluminal injury of bilateral femoral arteries was performed according to the method of Roque et al. with minor modification 27. […] Briefly, to denude and dilate femoral arteries, a 0.014″ angioplasty guidewire (Guidant) was passed endoluminally 3 times to the level of the aortic bifurcation. A sham protocol was performed where the arteries underwent dissection, clamping, and ligature without passage of the guidewire.
Computer-aided quantitative morphometry to measure luminal, medial, intimal, and vessel areas were performed as previously described 27 with minor modification. Mice were euthanized via CO2 asphyxiation prior to en bloc excision of hind limbs. Briefly, multiple segments of the common femoral artery at the level of injury were fixed in 10% Zinc Formalin, embedded in paraffin, sectioned at […] thickness, and subjected to Elastic-Van Gieson staining at a Columbia University Core Histology facility. In many cases, arteries underwent immunohistochemical staining for smooth muscle a-actin to highlight the media and neointima. Photomicrographs were captured on Adobe Photoshop 7.0 and transferred to Scion Image software for quantitative analysis. Specimens were analyzed by two independent operators blinded to the treatment groups. Microsoft Excel software was used to calculate the RNI values from I/M ratios in the absence and presence of pharmacological inhibitors, as detailed in the text.
Surgical Procedures: The mouse femoral artery wire injury model of was used with minor modifications (Roque M, et al., Arterioscler Thromb Vasc Biol, 2000, 20(2):335-42). Briefly, forty-two male mice were studied. Endoluminal injury to the common femoral artery was produced by either 3 passages of a 0.014″ diameter angioplasty guidewire (Guidant, Santa Clara, Calif.). […] While being viewed under a surgical microscope, a groin incision was made and the femoral artery was isolated and temporarily clamped distal to the inguinal ligament. An arteriotomy was performed and the guidewire was passed 3 times to the level of the aortic bifurcation. The artery was then ligated proximal to the arteriotomy. A sham protocol was carried out on the contralateral side where the arteries underwent dissection, temporary clamping, and ligature, without passage of the wire. The formation of the neointima was confirmed in this model as being comprised mainly of VSMCs through immunohistochemical staining of representative sections for α-smooth muscle actin via a commercial kit (Sigma).
For all treatment protocols, rapamycin was administered by intraperitoneal injection once per day, for 14 days, as a suspension in 0.2% sodium carboxymethyl cellulose and 0.25% polysorbate-80. […]

The subject of assay [3] is Akt Thr-308 phosphorylation. In words: Akt Thr-308 phosphorylation in descending aorta homogenates after i.p. treatment. As to conditions: Mus musculus, ip, 168 h; LY294002 1.2 mg/kg/day i.p., 7 days; read-out: inhibition of basal Thr-308 phosphorylation of Akt in descending aortas. The class given is in vivo. The source says:
Animals were processed for femoral artery morphometry after the 14-day drug treatments. For assessing LY294002 efficacy in vivo, descending aortas from mice treated with LY294002 or vehicle were harvested after 7 days of treatment; 3-4 aortas were pooled for immunoblot assessment of Akt phosphorylation.

Assay [4] concerns primary murine aortic vascular smooth muscle cells (VSMC). In words: VSMC proliferation assay (Coulter counter / MTS-based). Type of assay: cell-based, mouse. The conditions noted are these: Example 5; 6 nM leptin; inhibitor 10 μM.
The subject of assay [5] is cultured porcine coronary arteries. As to conditions: LY294002 10 μM; cited from earlier work.
[6] abbreviates: wire injury + leptin 0.4 mg/kg, LY 1.2 mg/kg daily i.p. 14 days, mean ± SD.

Entries after “also recorded” stand apart in the source; their conditions may differ.

Consider `O=c1cc(N2CCOCC2)oc2c(-c3ccccc3)cccc12` [LY294002, 2-(4-morpholinyl)-8-phenyl-4H-1-benzopyran-4-one], for which, in assay [1] (Example 1, 100 ng/mL leptin, inhibitor 10 mM, 72 hr), the “effect on leptin-induced proliferation of murine VSMC” value is “did inhibit”. Moreover, in assay [1] (LY294002 compared with 100 nmol/L rapamycin alone), the “VSMC proliferation induced by leptin and insulin” value was “more pronounced effect”. The “inhibition of leptin-induced neointimal formation” value in assay [2] (LY294002 1.2 mg/kg/d alone, leptin 0.4 mg/kg/d, 14 days) is reported as “partially inhibited; also recorded: not the LY294002 alone group revealed a complete inhibition”. Moreover, the “relative neointimal inhibition (RNI)” value in assay [2] (LY294002 1.2 mg/kg, leptin 0.4 mg/kg) amounted to 0.70. In assay [2] (setting [6]), the “I/M (intima:media ratio)” value was found to be 0.574 ± 0.186, the Intima was determined as 0.010 ± 0.003, the Lumen came out at 0.013 ± 0.002 and the Media is recorded as 0.020 ± 0.003. The “TVA (total vessel area)” value in assay [2] (setting [6]) amounted to 0.044 ± 0.006. Also, the inhibition at 1.2 mg/kg/day in assay [3] was over 80%. Also, in assay [4], the “effect on leptin-induced VSMC proliferation” value was “inhibited”. Besides, the “neointimal hyperplasia in cultured porcine coronary arteries” value in assay [5] was “prevents neointimal hyperplasia”.
